Assay results: article PMC7587369, “Antitumor Activity of Ruthenium(II) Terpyridine Complexes towards Colon Cancer Cells In Vitro and In Vivo” (Molecules, 2020)

Columns and labels:
[1] = test system: syngeneic CT26 mouse colon carcinoma; test: Heterotopic CT26 colon carcinoma growth in mice; format: in vivo, BALB/c mice; conditions: 2 mg/kg i.p.; for tumor weights after necropsy versus vehicle-treated mice: four times in total; for tumor growth inhibition (TGI): four times in total from day six, last day of the experiment; for necrosis fields in primary tumor, histology: hematoxylin and eosin
Experimental: In view of the proven cytotoxic effects of ruthenium(II) terpyridine complexes in vitro, the next goal of the present study was to examine the ability of tested compounds to inhibit murine colon cancer growth and progression in vivo. CT26 cells were heterotopically implanted into the shaved flank of the mice.
Male BALB/c mice of 6–8 weeks of age were used in all experiments. Mice were housed in a temperature-controlled environment (22–24 °C) with a 12 h light–dark cycle and were given standard laboratory food and water ad libitum. […] All experiments were approved (01-8461/2) by, and conducted in accord with, the Guidelines of the Animal Ethics Committee of the Faculty of Medical Sciences of the University of Kragujevac (Kragujevac, Serbia).
The size of primary CT26 colon tumors were assessed morphometrically using electronic calipers in two dimensions. The tumor volume was calculated as follows: tumor volume (mm^3) = (L × W^2)/2, where L is the longest and W the shortest […] of the tumor in millimeters. Results were expressed as means of tumor volumes ± SD. The percent tumor growth inhibition (TGI) was determined according to the formula, TGI(%) = (Vc − Vt)/(Vc − Vo) × 100, where Vc − Vt are the median of control and treated groups at the end of the study and Vo at the start.

SW480 cells = test: LDH release assay, SW480; format: cell-based, human; conditions: SW480, 300 μM, 24 h
Experimental: (§1) The cytotoxicity of used complexes was examined by an In Vitro Toxicology Assay Kit, Lactic Dehydrogenase based (Sigma-Aldrich, St. Lous, MO, USA). Cells were prepared and treated with complexes in the same manner as for the MTT assay. Additional wells were prepared as high control cells were treated with 1/10 volume of LDH Assay Lysis Solution for 45 min. Cells exposed to medium were used as low controls. After treatment, supernatant (50 μL) was transferred to new plate and incubated with an equivalent volume of Lactate Dehydrogenase Assay Mixture (which was prepared by mixing equal volumes of LDH Assay Substrate Solution, LDH Assay Dye Solution, and 1’ LDH Assay Cofactor Preparation. After incubating the plates in the dark for 30 min at room temperature, reaction was terminated by the addition of 10 μL of 1 N HCl to each well and data were acquired by spectrophotometry at 490 nm. The percentage of dead cells was calculated using the formula [44]:% of dead cells = (exp. value − low control)/(high control − low control) × 100.

[2] = test system: SW480 (human colon carcinoma cell line); test: MTT assay cytotoxicity, SW480; format: cell-based
Experimental: (§2) Oxaliplatin was included for comparison as a reference substance, and was tested under the same conditions.
(§3) The cells were harvested from the culture flasks during the exponential growth phase, counted and 5 × 10^3 cells/well were seeded into 96-well culture plates. About 24 h later, after the cell adherence, each well was treated with 100 μL of tested complexes, which had been serially diluted two-fold in medium to concentrations ranging from 300 to 2.3 μM. All cells were incubated at 37 °C in an atmosphere containing 5% CO2 and at absolute humidity for 24 and 72 h. After incubation, the culture medium was removed from each well and MTT solution (5 mg/mL in phosphate buffered saline (PBS)) was added to each well and cells were incubated 4 h under culture conditions. The cell-free supernatants were suctioned off, and dimethyl sulfoxide (DMSO) (150 μL) and glycine buffer (20 μL) were added to dissolve the formazan crystals. The plates were shaken for 10 min. The optical density of each well was determined at 595 nm using a multiplate reader (Zenyth 3100, Anthos Labtec Instruments GmbH, Salzburg, Austria). Experiments were performed in triplicates and repeated in three independent series. The percentage of cell viability was determined by comparison with untreated controls according to formula: % of viable cells = (E − B)/(S − B) × 100, where B is for the background of the medium alone, S is for the total viability/spontaneous death of untreated target cells, and E is for the experimental well. The IC50 values were determined by plotting the percentage viability versus concentration on a logarithmic graph and reading off the concentration at which 50% of cells remained viable relative to the control.

[3] = test system: HCT116 (human colon carcinoma cell line); test: MTT assay cytotoxicity, HCT116; format: cell-based
Experimental: as §2, §3

HCT116 cells [4] = test: Annexin V-FITC/PI double staining, flow cytometry, HCT116; format: cell-based, human; conditions: HCT116, IC50 concentrations, 24 h
Experimental: (§4) For the detection of apoptosis, the Annexin V binding capacity of treated cells was examined by flow cytometry using an Annexin V-fluorescein isothiocyanate (FITC) Detection Kit (BD Pharmingen, San Jose, CA, USA) according to the manufacturer’s protocol. […] Following the incubation, all cells were trypsinized, washed in PBS, centrifuged, and resuspended in 100 μL of ice-cold binding buffer (10× binding buffer: 0.1 M Hepes/NaOH (pH 7.4), 1.4 M NaCl, 25 mM CaCl2) at a concentration of 1 × 10^6/mL. Annexin V-FITC and propidium iodide (PI) were added to the 100 μL of cell suspension and incubated for 15 min at room temperature (25 °C) in the dark. After incubation, 400 μL of 1× binding buffer was added to each tube and stained cells were analyzed within 1 h using a flow cytometer FACS Calibur (BD Biosciences, San Jose, CA, USA). Data were analyzed using FlowJo Software version VX [45]. Measurements were presented as density plots of Annexin V-FITC and PI stainings.

CT26 cells [5] = test: Cell cycle analysis, CT26; format: cell-based, mouse; conditions: CT26, IC50 doses, 24 h
Experimental: (§5) Both the apoptosis induction and/or cell cycle arrest may reduce the viability of carcinoma cells. Thus, we next investigated the impact of ruthenium(II) terpyridine complexes on possible cell cycle disturbances in colon carcinoma cells.
(§6) Cell cycle analysis was performed with a Vybrant® DyeCycle™ Ruby stain (Thermo Fisher Scientific, Waltham, MA, USA) according to the manufacturer’s instructions. CT26, HCT116, and SW480 cells stained with Vybrant DyeCycle Ruby were analyzed by a Fluorescence-activated cell sorting (FACS) Calibur flow Cytometer (BD Biosciences, San Jose, CA, USA). The cell cycle distribution was analyzed using FlowJo software and the results were presented as histograms.

[6] = Systemic toxicity in CT26 tumor-bearing mice (body and organ weight, serum biochemistry, histopathology); conditions: 2 mg/kg i.p.
Experimental: Finally, in order to examine the safety of ruthenium(II) terpyridine complexes in vivo, the mice’s body weight was measured before tumor cell inoculation and at the end of experiment. The toxicity associated with ruthenium(II) terpyridine complexes treatment was assessed at biochemical and histopathological levels. The serum concentrations of the biochemical markers ALT, AST, urea, and creatinine were obtained to evaluate the liver and renal functions. In addition, the histopathological changes in the target organs, liver, heart, lungs, and kidneys were evaluated.
BALB/c mice bearing syngeneic CT26 mouse colon carcinoma were selected as the test system, as this experimental model has been extensively used for this kind of research in the literature [47]. For heterotopic colon carcinoma model, 1 × 10^6 CT26 cells suspended in 100 μL of DMEM were injected subcutaneously into the left flank of mice. Tumor-bearing mice were examined every 3 days for tumor development and progression and monitoring body weight. Animals were randomized into 4 groups with 6 tumor-bearing mice that were ear-tagged and followed-up individually throughout the study. The intraperitoneal administration of complexes or saline began on sixth day after post-tumor inoculation. Each drug was administered at doses of 2 mg/kg dissolved in 200 μL saline, twice weekly for four times in total (Scheme 2).
To study the potential side effects of ruthenium(II) terpyridine complexes, treated mice were monitored for weight loss. […] Blood samples were collected from abdominal aorta of each mouse in tubes without anticoagulant, and a separated serum was processed and analyzed by the chemistry analyzer Roche Cobas Mira Plus. The levels of serum urea, creatinine, and liver enzymes—aspartate aminotransferase (AST) and alanine aminotransferase (ALT)—were determined to assess the renal and hepatic function. After sacrificed, organ weights of the heart, liver, lungs, and kidneys, as well as the tumors, were determined for each animal, and the relative organ weight was calculated as % body weight. The tissue sections of various organs (heart, liver, lungs, and kidneys) and tumor were isolated for histopathological analysis. The tissues fixed in 4% paraformaldehyde were embedded in paraffin, cut into thin sections and mounted on glass slides. The tissue sections were stained with hematoxylin and eosin for microscopic examination.

[7] = test system: CT26 (mouse colon carcinoma cell line); test: MTT assay cytotoxicity, CT26; format: cell-based
Experimental: as §2, §3

CT26 cells [8] = test: Annexin V-FITC/PI double staining, flow cytometry, CT26; format: cell-based, mouse; conditions: CT26, IC50 concentrations, 24 h
Experimental: as §4

HCT116 cells [9] = test: LDH release assay, HCT116; format: cell-based, human; conditions: HCT116, 300 μM, 24 h
Experimental: as §1

[10] = Behaviour in aqueous solution by 1H NMR in D2O; format: physicochemical; conditions: ambient temperature, forms aqua species
Experimental: (§7) These new resonances, which grew at the expense of those of the parent compound, were attributed to the aqua species [Ru(Cl-tpy)(en)(OH2)]^2+ (1aq) and [Ru(Cl-tpy)(dach)(OH2)]^2+ (2aq), respectively (Scheme 1).
(§8) The compounds [Ru(Cl-tpy)(en)Cl][Cl] […] All other chemicals were used as purchased without further purification. NMR spectra were recorded on a Varian Gemini 200 MHz spectrometer. All chemical shifts were referenced to TSP (trimethylsilylpropionic acid) at d = 0.00. All NMR spectra were run at 295 K.

[11] = test system: HeLa, A549 and MRC-5 cells; set-up: method as in PMID 26855406, PMID 28088012; conditions: previously conducted study; read-out: IC50, range over HeLa, A549 and MRC-5; cited from earlier work
HCT116 cells [12] = test: Cell cycle analysis, HCT116; format: cell-based, human; conditions: HCT116, IC50 doses, 24 h
Experimental: as §5, §6

[13] = Interaction with glutathione by 1H NMR in D2O; conditions: 10 mM in D2O, GSH added to equilibrated solution
Experimental: as §7
The addition of GSH to an equilibrated solution of Ru-1 (10 mM) in D2O induced very slow changes in the ^1H NMR spectrum (Figure 2). A new set of resonances, attributable to the thiolate adduct [Ru(Cl-tpy)(en)(GS-S)] (3), became apparent in the ^1H NMR spectrum after 6 h. […] (4).
as §8

CT26 cells [14] = test: LDH release assay, CT26; format: cell-based, mouse; conditions: CT26, 300 μM, 24 h
Experimental: as §1

[15] = set-up: method as in PMID 26855406; conditions: cited from earlier work

| SMILES | tumor weights after necropsy versus vehicle-treated mice [1] | tumor growth inhibition (TGI) [1] [%] | necrosis fields in primary tumor, histology [1] | LDH levels (LDH release, % of dead cells) (SW480 cells) [%] | IC50 ([2]; 24 h exposure) [µM] | IC50 ([2]; 72 h exposure) [µM] | IC50 ([3]; 24 h exposure) [µM] | IC50 ([3]; 72 h exposure) [µM] | late apoptosis in HCT116 cells, in words (HCT116 cells [4]) | cell cycle disturbance (CT26 cells [5]) | serum concentration of creatinine ([6]; tumor-bearing mice) | serum level of ALT ([6]; tumor-bearing mice) | serum level of AST compared to the control group ([6]; tumor-bearing mice) | IC50 ([7]; 24 h exposure) [µM] | IC50 ([7]; 72 h exposure) [µM] | LDH levels (LDH release, % of dead cells) (HCT116 cells [9]) [%] | lability of the chloride ligand in aqueous solution [10] | IC50 [11] [µM] | other results |
| --- | --- | --- | --- | --- | --- | --- | --- | --- | --- | --- | --- | --- | --- | --- | --- | --- | --- | --- | --- |
| O=C1[O][Pt]2([NH][C@@H]3CCCC[C@H]3[NH]2)[O]C1=O [Oxaliplatin, oxaliplatin, reference compound] | markedly lower | 51.39 | no greater than the necrosis field in untreated mice tumors | 2.20 | 100 ± 9 | 1.3 | 9.7 ± 8 | 0.1 | induced late apoptosis | G2/M phase arrest | did not affect | no difference | no difference | 54.5 ± 4 | 25.2 ± 2 | 0 | – | – | apoptotic death of CT26 tumor cells, in words (CT26 cells [8]): moderately induced apoptotic death |
| Clc1cc(-c2ccccn2)nc(-c2ccccn2)c1.NC1CCCCC1N.[Cl-].[Cl-].[Ru+2] [Ru-2, [Ru(Cl-tpy)(dach)Cl][Cl]] | slightly smaller than tumors from the control group, but without statistical significance | 17.56 | larger compared to necrosis fields in the tumors of untreated mice and oxaliplatin-treated mice | 33.07 | 156 ± 12 | 86.4 ± 7 | 50.4 ± 5 | 20.4 ± 1 | – | – | – | no difference | no difference | 167 ± 12 | 148 ± 11 | 2.35 | very labile | 72.8 to 111 | serum urea concentration, excess compared to all other groups ([6]; tumor-bearing mice): ~ 3 units |
| Clc1cc(-c2ccccn2)nc(-c2ccccn2)c1.NCCN.[Cl-].[Cl-].[Ru+2] [Ru-1, [Ru(Cl-tpy)(en)Cl][Cl]] | markedly lower | 53.41 | The largest part of the primary tumor of Ru-1-treated mice was necrotic | – | 50.4 ± 4 | 44.7 ± 4 | 31.8 ± 2 | 19.1 ± 1 | induced late apoptosis | G2/M phase arrest | did not affect | – | – | 43.3 ± 3 | 50.9 ± 4 | 8.37 | very labile | 32.8 to 66.3 | cell cycle disturbance (HCT116 cells [12]): G2/M phase arrest; histological changes in kidney tissue [6]: hyaline cylinders and focal hyaline glomerular change; serum concentration of urea compared to saline-treated mice ([6]; tumor-bearing mice): did not affect; histological changes in heart tissue ([6]; in comparison with oxaliplatin and saline-treated mice): No significant histological changes; time after which thiolate adduct with GSH became apparent in 1H NMR [13]: 6 h; LDH levels (LDH release, % of dead cells) (CT26 cells [14]): 36.43%; log Po/w [15]: −1.33 |
